Twelve compounds from ChEMBL document CHEMBL1667790, “Synthesis and antioxidant activity of long chain alkyl hydroxycinnamates” (Eur J Med Chem, 2011) can be followed below.

The subject of experiment [1] is Radical scavenging activity. Nature of the experiment: Antioxidant activity assessed as residual DPPH radical scavenging activity after 45 mins by spectrophotometrically. It counts as functional.
The nature of experiment [2]: Antioxidant activity assessed as trolox equivalents of ABTS radical scavenging activity by TEAC assay. It counts as functional.

Each structure is given as a SMILES string.

Regarding `CCCCCCCCCCCCCCOC(=O)/C=C/c1ccc(O)cc1`, the IC50 in experiment [1] was greater than 100 µM.

For the compound `COc1cc(/C=C/C(=O)O)cc(OC)c1O` [SINAPINATE], the IC50 in experiment [1] came to 66 µM. Moreover, the Activity in experiment [2] is 1.14 mmol.

With `COc1cc(/C=C/C(=O)O)ccc1O` [FERULATE], in experiment [1], the IC50 turned out to be 112 µM. For the same compound, the Activity in experiment [2] was found to be 1.76 mmol.

As for `CCCCCCCCCCCCCCCCCCOC(=O)/C=C/c1ccc(O)c(OC)c1`, the IC50 in experiment [1] is 117 µM. Also, in experiment [2], the Activity worked out at 1.8 mmol.

With `CCCCCCCCCCCCCCOC(=O)/C=C/c1ccc(O)c(OC)c1`, in experiment [1], the half-inhibitory concentration (IC50) was 110 µM. Besides, the Activity in experiment [2] came out at 1.66 mmol.

With `CCCCCCCCCCCCCCOC(=O)/C=C/c1cc(OC)c(O)c(OC)c1`, the half-maximal inhibitory concentration (IC50) in experiment [1] was found to be 77.2 µM. For the same compound, the Activity in experiment [2] turned out to be 1.18 mmol.

As to `CCCCCCCCCCCCCCCCCCOC(=O)/C=C/c1ccc(O)c(O)c1`, the IC50 in experiment [1] amounted to 38 µM. The Activity in experiment [2] is 1.02 mmol.

In the case of `CCCCCCCCCCCCCCCCOC(=O)/C=C/c1ccc(O)c(O)c1`, the IC50 in experiment [1] stood at 33 µM. For the same compound, the Activity in experiment [2] was determined as 0.96 mmol.

Consider `O=C(O)/C=C/c1ccc(O)cc1` [COUMARIC ACID], for which the concentration for half-maximal inhibition (IC50) in experiment [1] was greater than 100 µM.

With `O=C(O)/C=C/c1ccc(O)c(O)c1` [CAFFEIC ACID], the IC50 in experiment [1] was 34.1 µM. The Activity in experiment [2] was 0.95 mmol.

Consider `CCCCCCCCCCCCCCCCCCOC(=O)/C=C/c1cc(OC)c(O)c(OC)c1`, for which the half-inhibitory concentration (IC50) in experiment [1] amounted to 77.1 µM. Also, the Activity in experiment [2] stood at 1.16 mmol.

For the compound `CCCCCCCCCCCCCCOC(=O)/C=C/c1ccc(O)c(O)c1`, the IC50 in experiment [1] worked out at 31.9 µM. In addition, the Activity in experiment [2] is 0.98 mmol.
